Among the data in PubChem BioAssay (NCI) are TGI and GI50 values, retold here.

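Method: 48-hour compound exposure of cells in 96-well plates, five concentrations, linear interpolation of endpoints. At the GI50, growth is halved. At the TGI there is no net growth.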

What all share (assay): NCI tumour cell line growth inhibition, 48 h
Experiment [1] relates to NCI-H460 lung.
Experiment [2] relates to SK-OV-3 ovarian.
Experiment [3] has as its system OVCAR-3 ovarian.
Experiment [4] concerns LOX IMVI melanoma.
The test system of experiment [5] is ACHN renal.
Experiment [6] concerns SF-539 CNS.
Experiment [7] has as its system M14 melanoma.
Experiment [8] concerns 786-0 renal.
Experiment [9] concerns UACC-257 melanoma.
In experiment [10] the test system is OVCAR-5 ovarian.

Consider `N/N=C1\C(=O)N(C2CCCCC2)C(=O)C1C(=O)NC1CCCCC1` (stereo not drawn), for which the TGI was > 100 µM in [1]; > 100 µM in [2]; 51 µM in experiment [3]; > 100 µM in [4]; > 100 µM in experiment [5]; > 100 µM in experiment [6]. Moreover, the TGI in experiment [7], in [8], in [9] and in experiment [10] was > 100 µM each time.

As for `Cc1nc2sccn2c(=O)c1CCN1CCC(=C(c2ccc(F)cc2)c2ccc(F)cc2)CC1`, the GI50 in experiment [1] is 7.49 µM; in experiment [2], 16.3 µM; in experiment [3], 12.8 µM; in [4], 8.18 µM; in [5] it was 13.4 µM; in experiment [6], 15 µM. The GI50 was 9.53 µM in experiment [7], 12 µM in experiment [8], 9.2 µM in experiment [9] and 15.2 µM in experiment [10]. Further, the TGI turned out to be 22.7 µM in experiment [1]; 30.7 µM in experiment [2]; 27.2 µM in experiment [3]; 22.9 µM in [4]; 26.3 µM in [5]; 28.9 µM in [6]. Besides, the TGI came out at 24.8 µM in experiment [7], 27.8 µM in experiment [8], 21.9 µM in [9] and 29.4 µM in [10].

`O=C1OCC(c2cccs2)=C1Cl`: the GI50 in [1] was 56.8 µM; in experiment [2] it was > 100 µM; in experiment [3] it was 44.8 µM; in experiment [4] it was 89.5 µM; in experiment [5], 56.7 µM; in experiment [6], 23.2 µM. Moreover, the GI50 is > 100 µM in experiment [7], > 100 µM in [8], 41 µM in experiment [9] and 76.7 µM in [10]. Besides, the TGI in experiment [1] was > 100 µM; in [2], > 100 µM; in experiment [3], > 100 µM; in experiment [4], > 100 µM; in experiment [5], > 100 µM; in [6], 86 µM. Besides, the TGI in experiment [7], in experiment [8], in experiment [9] and in [10] was > 100 µM throughout.

As to `O=C1C(Br)=CC2(C=C1Br)CCN=c1c2c(O)c2nc3ccccc3c3ccnc1c23`, the GI50 in experiment [1] is 2.48 µM; in experiment [2], 5.03 µM; in experiment [3] it was 1.51 µM; in experiment [4], 1.24 µM; in experiment [5], 0.753 µM; in [6] it was 1.55 µM. Also, the GI50 in experiment [7] is 1.73 µM; in experiment [8], 0.987 µM; in experiment [10], 7.22 µM. For the same compound, the TGI came to 10.6 µM in experiment [1]; 11 µM in [2]; 8.14 µM in [3]; 4.35 µM in [4]; 1.7 µM in [5]; 6.11 µM in experiment [6]. Further, the TGI in experiment [7] stood at 8.73 µM; in experiment [8] it was 2.37 µM; in experiment [10], 17.6 µM.

`CC(C)C1OC(=O)C=C1Sc1ccccc1` (stereo not drawn): the TGI in experiment [1], in experiment [2], in experiment [3], in experiment [4], in [5] and in experiment [6] was > 100 µM throughout. Further, the TGI in experiment [7], in experiment [8], in [9] and in experiment [10] was > 100 µM throughout.

For the compound `COc1ccc(/C=C2\CCCCC2=O)cc1`, the TGI in experiment [1], in experiment [2], in experiment [3], in experiment [4], in experiment [5] and in experiment [6] was > 100 µM each time. The TGI in [7] and in experiment [8] was > 100 µM each time.

Consider `Cc1cccc(Oc2nccc(-c3c(-c4ccc(F)cc4)ncn3C3CCNCC3)n2)c1C`, for which the GI50 was 6.24 µM in experiment [1]; 5.72 µM in [2]; 14.3 µM in [3]; 5.79 µM in [4]; 6.11 µM in experiment [5]; 4.84 µM in experiment [6]. The figures for the GI50 in experiment [7], in experiment [8] and in experiment [10] were 4.8 µM, 8.22 µM and 8.62 µM, respectively. Further, the TGI in experiment [1] is > 15 µM; in experiment [2], 12.5 µM; in experiment [3], > 25 µM; in experiment [4], > 15.1 µM; in experiment [5] it was > 25 µM; in experiment [6], 10.4 µM. Besides, the results for the TGI in experiment [7], in [8] and in experiment [10] were 9.01 µM, > 18 µM and > 25 µM, respectively.

As to `CCOC(=O)N1CCc2cc(OC)c(OC)c3c2C1CC3=O` (stereo not drawn), the TGI in [1], in experiment [2], in experiment [4], in experiment [5], in experiment [6] and in [7] was > 100 µM each time. Also, the TGI in [8], in experiment [9] and in experiment [10] was > 100 µM in each case.

For `COc1cc2c(cc1OCCOS(C)(=O)=O)N=C[C@@H]1CCCN1C2=O`, the TGI was > 100 µM in [1]; > 100 µM in [2]; 31.3 µM in [3]; 29.5 µM in [4]; 29.5 µM in experiment [5]; 47.2 µM in experiment [6]. In addition, the figures for the TGI in [7], in experiment [8] and in experiment [9] were 34.6 µM, 30.7 µM and 42.8 µM, respectively. Also, the GI50 was 16.3 µM in experiment [3]; 15.7 µM in [4]; 16 µM in experiment [5]; 18.6 µM in experiment [6]; 18.7 µM in experiment [7]; 17 µM in [8]. Moreover, the GI50 in experiment [9] was 18.2 µM.

For the compound `COC1(OC)CC2C=C(S(=O)(=O)c3ccccc3)C1N(Cc1ccccc1)C2=O` (stereo not drawn), the TGI was > 100 µM in [1]; > 100 µM in [2]; 56.6 µM in experiment [3]; 33.1 µM in experiment [4]; > 100 µM in [5]; 44.9 µM in [6]. The TGI in [7] is 67.1 µM; in [8], > 100 µM; in [9], > 100 µM.
